# Measurements from patent US20240374573A1, “IMIDAZOLE CONTAINING COMPOUNDS, DERIVATIVES THEREFORE, AND USES THEREOF” (AglaeaPharma Inc., priority 2023, published 2024).
# pEC50, pKi: −log10 of the molar value.
# Legend:
# [1] = target: T1, α2AAR (α2A-adrenergic receptor) (Homo sapiens, UniProt P08913); experiment: α2AAR FLIPR assay (agonist activity); type: cell-based; details: FLIPR, α2AAR cell line hosted in HEK293 cells; read-out: α2A agonist activity (EC50)
# T1 construct: expressed in transfected cells; host or cells: HEK293
# T1 sequence (P08913 1-465): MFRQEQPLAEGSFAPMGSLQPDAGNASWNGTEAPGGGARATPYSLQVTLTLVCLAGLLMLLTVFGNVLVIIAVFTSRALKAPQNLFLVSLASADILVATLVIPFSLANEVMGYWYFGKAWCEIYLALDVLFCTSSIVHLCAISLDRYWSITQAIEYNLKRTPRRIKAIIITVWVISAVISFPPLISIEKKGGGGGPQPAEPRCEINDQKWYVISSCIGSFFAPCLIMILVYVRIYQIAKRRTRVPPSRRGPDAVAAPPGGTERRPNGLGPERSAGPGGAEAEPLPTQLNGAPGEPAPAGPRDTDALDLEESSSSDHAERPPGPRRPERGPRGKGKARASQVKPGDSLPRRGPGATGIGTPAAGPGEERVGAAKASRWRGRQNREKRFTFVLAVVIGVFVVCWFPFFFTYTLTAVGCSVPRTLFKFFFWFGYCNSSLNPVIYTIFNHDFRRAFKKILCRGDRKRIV
# Description: This experimental protocol involved cell seeding and a FLIPR assay using the α2AAR (α2A-adrenergic receptor) cell line hosted in HEK293 cells. […] On Day 1, the cell seeding process started with the removal of the culture medium, followed by rinsing the cells with DPBS (21-031-CVC, Corning). […] The cells were detached, resuspended in growth media, and centrifuged at room temperature at 1000 rpm for 5 minutes. After discarding the supernatant, the cell pellet was resuspended in growth media to a concentration of 10× 10^5 cells per mL. This suspension was added to 384-well plates (19-Jul-38, Greiner) at 20 μL per well and incubated overnight at 37° C. in 5% CO2.
# A 250 mM Probenecid solution was prepared in this buffer. The Fluo-4 Direct™ Loading Buffer was made by dissolving Fluo-4 Direct™ crystals (F10471, Invitrogen) in the FLIPR Assay Buffer and adding Probenecid. The buffer was then vortexed and allowed to stand for over 5 minutes, shielded from light. For the FLIPR procedure, testing compounds for agonist activite were serially diluted and transferred to a 384-well compound plate (25-Jan-39, Greiner). The cell plate was then treated with 2× Fluo-4 Direct™ loading buffer and incubated for 50 minutes at 37° C. in a 5% CO2 atmosphere, followed by 10 minutes at room temperature. Subsequently, the FLIPR assay buffer was added to the compound plate, which is then centrifuged.
# The cell plate was analyzed in the FLIPR Tetra+ System for fluorescence signals. For the agonist test, reference compounds were added to the cell plates, and fluorescence was measured. The “Max-Min” calculation began from Read 1 to the maximum allowed. The data were analyzed using Prism software to calculate activation percentage for agonists and inhibition percentage for antagonists. The results were then fitted using specific models to determine EC50 for agonists.
# The experimental protocol utilized various reagents and apparatus, including Penicillin/Streptomycin (100×) (SV30010, Hyclone), Poly-L-lysine hydrobromide (P1399, Sigma), and different types of 384-well plates such as the 384-Well PP 2.0 Microplate (PP-0200, LABCYTE) and 384 well Low Dead Volume Microplate (LP-0200, LABCYTE). The use of specific reference compounds like UK14304 was also integral to the assay.
# [2] = target: T2, α2AAR (Homo sapiens, UniProt P08913); experiment: α2AAR binding assay ([3H]-RX 821002 radioligand); details: [3H]-RX 821002 0.5 nM, HEK293 membranes; read-out: α2A affinity (Ki)
# T2 construct: host or cells: HEK293 (membranes)
# T2 sequence (P08913 1-465): T1 sequence (P08913 1-465)
pEC50 [1],pKi [2],SMILES
7.30 to 8.00,7.30 to 8.00,Cc1cccc(C(c2cccc(S(N)(=O)=O)c2)c2c[nH]cn2)c1C (stereo not drawn) [compound 133]
7.30 to 8.00,> 8.00,Cc1cccc(C(Cc2cccc(NS(=O)(=O)C3CCOCC3)c2)c2c[nH]cn2)c1C (stereo not drawn) [compound 134]
7.30 to 8.00,7.30 to 8.00,Cc1cccc(C(COCCNS(=O)(=O)CC2CCOCC2)c2c[nH]cn2)c1C (stereo not drawn) [compound 139]
6.60 to 7.30,7.30 to 8.00,Cc1cccc(C(c2cccc(NC(=O)CC[n+]3ccccc3)c2)c2c[nH]cn2)c1C (stereo not drawn) [compound 143]
7.30 to 8.00,> 8.00,Cc1cccc(C(c2cccc(C(=O)NOC3CCOCC3)c2)c2c[nH]cn2)c1C (stereo not drawn) [compound 145]
7.30 to 8.00,7.30 to 8.00,CNC(=O)Nc1cccc(C(c2c[nH]cn2)c2cccc(C)c2C)n1 (stereo not drawn) [compound 146]
7.30 to 8.00,7.30 to 8.00,COCCC(=O)Nc1cccc(C(c2c[nH]cn2)c2cccc(C)c2C)c1 (stereo not drawn) [compound 147]
7.30 to 8.00,7.30 to 8.00,COCCCC(=O)Nc1cccc(C(c2c[nH]cn2)c2cccc(C)c2C)c1 (stereo not drawn) [compound 148]
7.30 to 8.00,7.30 to 8.00,Cc1cccc(C(c2cccc(NC(=O)C3CCOCC3)c2)c2c[nH]cn2)c1C (stereo not drawn) [compound 149]
7.30 to 8.00,> 8.00,Cc1cccc(C(c2c[nH]cn2)c2cccc(C(=O)NOC3CCOCC3)n2)c1C (stereo not drawn) [compound 152]
7.30 to 8.00,7.30 to 8.00,Cc1cccc(C(c2cccc(NC(=O)CC3CCCO3)c2)c2c[nH]cn2)c1C (stereo not drawn) [compound 153]
> 8.00,> 8.00,Cc1cccc(C(Cc2ccc(NC(=O)C3CCOCC3)cc2)c2c[nH]cn2)c1C (stereo not drawn) [compound 157]
7.30 to 8.00,7.30 to 8.00,Cc1cn(-c2cccc(C(c3c[nH]cn3)c3cccc(C)c3C)c2)nn1 (stereo not drawn) [compound 160]
7.30 to 8.00,> 8.00,Cc1cccc(C(c2cccc(NC(=S)CC3CCOCC3)c2)c2c[nH]cn2)c1C (stereo not drawn) [compound 161]
7.30 to 8.00,> 8.00,Cc1cccc(C(c2cccc(S(=O)(=O)NC3CCOCC3)c2)c2c[nH]cn2)c1C (stereo not drawn) [compound 162]
7.30 to 8.00,7.30 to 8.00,Cc1cccc(C(c2cccc(-c3cnnn3C)c2)c2c[nH]cn2)c1C (stereo not drawn) [compound 164]
7.30 to 8.00,7.30 to 8.00,Cc1cccc(C(c2cccc(NS(=O)(=O)C[C@H]3CCCO3)c2)c2c[nH]cn2)c1C (stereo partly drawn) [compound 166]
> 8.00,> 8.00,Cc1cccc(C(Cc2ccc(NC(=O)CC3CCCCO3)cc2)c2c[nH]cn2)c1C (stereo not drawn) [compound 169]
> 8.00,> 8.00,Cc1cccc(C(Cc2ccc(NC(=O)CC3CCOC3)cc2)c2c[nH]cn2)c1C (stereo not drawn) [compound 171]
7.30 to 8.00,6.60 to 7.30,Cc1cccc(C(Cc2ccc(C(C)C(=O)O)cc2)c2c[nH]cn2)c1C (stereo not drawn) [compound 174]
7.30 to 8.00,6.00 to 6.60,Cc1cccc(C(Cc2ccc(C(=O)O)cc2)c2c[nH]cn2)c1C (stereo not drawn) [compound 175]
> 8.00,> 8.00,Cc1cccc(C(Cc2ccc(NC(=O)CC3CCCO3)cc2)c2c[nH]cn2)c1C (stereo not drawn) [compound 176]
> 8.00,7.30 to 8.00,Cc1cccc(C(Cc2ccc(C(=O)NC3CCOCC3)cc2)c2c[nH]cn2)c1C (stereo not drawn) [compound 177]
> 8.00,> 8.00,Cc1cccc(C(Cc2ccc(S(=O)(=O)NC3COC3)cc2)c2c[nH]cn2)c1C (stereo not drawn) [compound 179]
7.30 to 8.00,7.30 to 8.00,Cc1cccc(C(c2cccc(NC(=O)N3CCCCC3)c2)c2c[nH]cn2)c1C (stereo not drawn) [compound 180]
6.60 to 7.30,> 8.00,Cc1cccc(C(Cc2ccc(NC(=O)CC3CCCCC3)cc2)c2c[nH]cn2)c1C (stereo not drawn) [compound 181]

pEC50 [1],pKi [2],SMILES
7.30 to 8.00,> 8.00,CNC(=O)c1ccc(CC(c2c[nH]cn2)c2cccc(C)c2C)cc1F (stereo not drawn) [compound 192]
7.30 to 8.00,> 8.00,CC(=O)Nc1ccc(CC(c2c[nH]cn2)c2cccc(C)c2C)cc1F (stereo not drawn) [compound 193]
7.30 to 8.00,> 8.00,COC(=O)Nc1ccc(CC(c2c[nH]cn2)c2cccc(C)c2C)cc1 (stereo not drawn) [compound 194]
7.30 to 8.00,> 8.00,COCC(=O)Nc1ccc(CC(c2c[nH]cn2)c2cccc(C)c2C)cc1 (stereo not drawn) [compound 195]
6.60 to 7.30,> 8.00,Cc1cccc(C(Cc2ccc3c(c2)OCCO3)c2c[nH]cn2)c1C (stereo not drawn) [compound 196]
7.30 to 8.00,6.60 to 7.30,Cc1cccc(C(Cc2ccc(C(=O)O)c(F)c2)c2c[nH]cn2)c1C (stereo not drawn) [compound 197]
7.30 to 8.00,> 8.00,Cc1cccc(C(Cc2ccc(NC(=O)NC3CCOC3)cc2)c2c[nH]cn2)c1C (stereo not drawn) [compound 198]
7.30 to 8.00,> 8.00,Cc1cccc(C(c2c[nH]cn2)c2cccc(-c3cnnn3C)c2F)c1C (stereo not drawn) [compound 201]
6.60 to 7.30,> 8.00,CNc1ccc(CC(c2c[nH]cn2)c2cccc(C)c2C)cc1 (stereo not drawn) [compound 203]
6.60 to 7.30,6.60 to 7.30,Cc1cccc(C(Cc2ccc(C(=O)NS(=O)(=O)c3ccccc3)cc2)c2c[nH]cn2)c1C (stereo not drawn) [compound 204]
6.60 to 7.30,6.60 to 7.30,Cc1cccc(C(Cc2ccc(CC(=O)O)cc2)c2c[nH]cn2)c1C (stereo not drawn) [compound 206]
7.30 to 8.00,> 8.00,Cc1cccc(C(Cc2ccc(NC3CCOCC3)cc2)c2c[nH]cn2)c1C (stereo not drawn) [compound 207]
7.30 to 8.00,> 8.00,Cc1cccc(C(Cc2ccc(-c3cnnn3C)cc2)c2c[nH]cn2)c1C (stereo not drawn) [compound 209]
6.60 to 7.30,7.30 to 8.00,Cc1cccc(C(Cc2ccc(-c3nnn[nH]3)cc2)c2c[nH]cn2)c1C (stereo not drawn) [compound 210]
7.30 to 8.00,> 8.00,Cc1cn(-c2ccc(CC(c3c[nH]cn3)c3cccc(C)c3C)cc2)nn1 (stereo not drawn) [compound 211]
7.30 to 8.00,> 8.00,Cc1cccc(C(Cc2ccc(NC(=S)C3CCOCC3)cc2)c2c[nH]cn2)c1C (stereo not drawn) [compound 212]
7.30 to 8.00,6.60 to 7.30,Cc1cccc(C(Cc2ccc(C(=O)O)c(O)c2)c2c[nH]cn2)c1C (stereo not drawn) [compound 218]
> 8.00,> 8.00,Cc1cccc(C(c2cccc(-c3cnnn3C3CCOCC3)c2)c2c[nH]cn2)c1C (stereo not drawn) [compound 220]
7.30 to 8.00,7.30 to 8.00,Cc1cccc(C(Cc2ccc(S(=O)(=O)O)cc2)c2c[nH]cn2)c1C (stereo not drawn) [compound 221]
7.30 to 8.00,7.30 to 8.00,CC(=O)N(C)c1ccc(CC(c2c[nH]cn2)c2cccc(C)c2C)cc1 (stereo not drawn) [compound 222]
7.30 to 8.00,> 8.00,Cc1cccc(C(Cc2ccc(O)c(O)c2)c2c[nH]cn2)c1C (stereo not drawn) [compound 223]
> 8.00,> 8.00,COc1ccc(CC(c2c[nH]cn2)c2cccc(C)c2C)cc1OC (stereo not drawn) [compound 224]
> 8.00,> 8.00,Cc1cccc(C(Cc2ccc3c(c2)OCC(=O)N3)c2c[nH]cn2)c1C (stereo not drawn) [compound 225]
> 8.00,> 8.00,COc1cc(CC(c2c[nH]cn2)c2cccc(C)c2C)cc(OC)c1OC (stereo not drawn) [compound 226]
7.30 to 8.00,7.30 to 8.00,Cc1cccc(C(Cc2ccc(C(C)c3nnn[nH]3)cc2)c2c[nH]cn2)c1C (stereo not drawn) [compound 227]
> 8.00,> 8.00,Cc1cccc(C(Cc2ccc(N(C)C(=O)N(C)C)cc2)c2c[nH]cn2)c1C (stereo not drawn) [compound 228]

SMILES,pEC50 [1],pKi [2]
CCOP(=O)(OCC)c1cccc(C(c2c[nH]cn2)c2cccc(C)c2C)c1 (stereo not drawn) [compound 126],7.30 to 8.00,> 8.00
COP(=O)(CC1CCOCC1)Nc1cccc(C(c2c[nH]cn2)c2cccc(C)c2C)c1 (stereo not drawn) [compound 167],7.30 to 8.00,7.30 to 8.00
